In patent US20120079612A1, “Dry eye animal model” (West Virginia University, priority 2010, published 2012):

Experiments:
Serum E2 levels = assay type: in vivo, Sprague-Dawley rats; details: Example 2: rats at 18 months after 1.5 mg 90-day pellet implanted at 15 months; compared to Intact (placebo) rats
Description: Female Sprague-Dawley rats, age 15 months, were subcutaneously implanted with placebo pellets and E2 rats received pellets containing 1.5 mg of 17β-estradiol in a 90-day time-release matrix. Both groups received treatment until they reached 18 months of age. Serum E2 levels were measured from blood collected prior to randomization to treatment groups and again at time of euthanasia. […] Serum E2 levels of rats prior to randomization at 15 months of age (Pre) and two weeks before gland excision, at 18 months of age (Post). […] Also, Tear Volume Assessment and Tear Break-up Time both have been examined in the rats. […] TBUT was also altered by estrogen treatment with E2 rats having a significant reduction in time to first tear disruption compared to Intact rats (16.4±1.1 sec and 33.7±1.9 sec, respectively; p<0.001) (FIG. 5). Tear volume was measured in 18 month old female rats during 3 months of E2 or placebo supplementation. […] (B) Tear break up time was also measured in rats receiving placebo or E2 treatment using fluorescein sodium (0.25%).

female rats [1] = assay: Tear breakup time (TBUT), Fluress and slit lamp; assay type: in vivo, Sprague-Dawley rats
Description: (§1) Female rats of 9 months of age were ovariectomized and immediately supplemented with 1.5 mg of 17β-estradiol in three, separate 90-day time release pellets until 18 months. Three experimental groups were used with ovaries excised from rats in treatment […] (FIG. 1). Group 1 underwent a sham ovariectomy and was implanted with placebo pellet, Group 2 underwent an ovariectomy and was implanted with placebo pellet, and Group 3 underwent an ovariectomy and was implanted with E2 pellet. The three groups had tear breakup time and tear volume tested. […] The time lapse between the last blink and the first randomly distributed dry spot on the cornea using a portable slit lamp was recorded. The process was repeated 3 times for each subject and the results recorded (FIG. 2). […] Rats received 0.5 uL Fluress onto the eye, then the eye was manually blinked 3 times, and the modified Schirmer's strip was placed in the upper fornix for 5 minutes for assessment of tear volume and the volume was recorded (FIG. 3).
(§2) Female Sprague-Dawley rats, age 15 months, were subcutaneously implanted with placebo pellets and E2 rats received pellets containing 1.5 mg of 17β-estradiol in a 90-day time-release matrix. […] Serum E2 levels were measured from blood collected prior to randomization to treatment groups and again at time of euthanasia. […]

female rats [2] = assay: Tear volume, modified Schirmer's test; assay type: in vivo, Sprague-Dawley rats
Description: as §1, §2

women = details: compared to non-treated women of the same age, the estrogen-alone figure is for women with prior hysterectomy; cited from earlier work
[3] = Example 1: rats ovariectomized at 9 months, 1.5 mg 17β-estradiol 90-day pellets until 18 months, compared to control groups 1 and 2
[4] = Example 2: post-menopausal rats at 18 months, 3 months of E2 supplementation, p<0.001 vs Intact rats

| Compound | serum E2 levels (Serum E2 levels) | tear break up time (female rats [1]; [3]) | TBUT, time to first tear disruption (female rats [1]; [4]) | tear volume (female rats [2]; [3]) | tear volume (female rats [2]; [4]) | increase of KCS (women) |
| --- | --- | --- | --- | --- | --- | --- |
| C[C@]12CC[C@@H]3c4ccc(O)cc4CC[C@H]3[C@@H]1CC[C@@H]2O [E2, 17β-estradiol] | significantly elevated | shorter tear break up time | 16.4 ± 1.1 s | reduced tear volume | 7.4±0.58 mm | – |
| estrogen | – | – | – | – | – | ~70% |
